Measurements as given in US10934300B2, “Atropisomerism for enhanced kinase inhibitor selectivity” (San Diego State University Foundation, priority 2017, dated 2021).

Tests used:
Alk = Alk (Homo sapiens, UniProt Q9UM73); experiment: Z'-LYTE kinase inhibition, Alk
Fgr = Fgr (Homo sapiens, UniProt P09769); experiment: Z'-LYTE kinase inhibition, Fgr
Kit = Kit (Homo sapiens, UniProt P10721); experiment: Z'-LYTE kinase inhibition, Kit
Lyn = Lyn (Homo sapiens, UniProt P07948); experiment: Z'-LYTE kinase inhibition, Lyn
Src kinase = Src kinase (Homo sapiens, UniProt P12931); experiment: Z'-LYTE kinase inhibition, Src; details: Src relative to Yes
Fyn = Fyn (Homo sapiens, UniProt P06241); experiment: Z'-LYTE kinase inhibition, Fyn
pdgfr-a = pdgfr-a (Homo sapiens, UniProt P16234); experiment: Z'-LYTE kinase inhibition, pdgfr-a
Hck = Hck (Homo sapiens, UniProt P08631); experiment: Z'-LYTE kinase inhibition, Hck
Blk = Blk (Homo sapiens, UniProt P51451); experiment: Z'-LYTE kinase inhibition, Blk
CSK = CSK (Homo sapiens, UniProt P41240); experiment: Z'-LYTE kinase inhibition, CSK
Yes = Yes (Homo sapiens, UniProt P07947); experiment: Z'-LYTE kinase inhibition, Yes
Lck = Lck (Homo sapiens, UniProt P06239); experiment: Z'-LYTE kinase inhibition, Lck
[1] = test system: panel of tyrosine kinases; experiment: Kinase inhibitor profiling across a panel of tyrosine kinases, selectivity score; assay type: biochemical
Description: To analyze each analog's selectivity across the panel, selectivity scores were used (Davis et al., Nat. Biotechnol. 2011, 29, 1046-51), which are simply the number of kinases inhibited above a certain threshold divided by the number of kinases evaluated. […] For example at 1000 nM 2e-(R) yielded an S(40%) of 0.11 while 2e-(S) gave an S(40%) of 0.16. […] Differences in selectivity between 2e-(R) and 2e-(S) at 5000 nM (4.5 times the IC50 of 2e-(S) toward Src) and for 5 at 1000 nM (6.25 times the IC50 of 5 toward Src) can be viewed graphically across tyrosine kinases (FIG. 3). Importantly, similar trends were also observed across each of the atropisomeric series tested.
All samples were sent out to Life Technologies to obtain kinase inhibition data. A brief description of the assays and analyses are included below.
Assay Theory (SelectScreen® Kinase Profiling Services (Life Technologies, Madison, Wis. USA). The Z′-LYTE® biochemical assay employs a fluorescence-based, coupled-enzyme format and is based on the differential sensitivity of phosphorylated and non-phosphorylated peptides to proteolytic cleavage. The peptide substrate is labeled with two fluorophores—one at each end—that make up a FRET pair.
In the primary reaction, the kinase transfers the gamma-phosphate of ATP to a single tyrosine, serine or threonine residue in a synthetic FRET-peptide. In the secondary reaction, a site-specific protease recognizes and cleaves non-phosphorylated FRET-peptides. Phosphorylation of FRET-peptides suppresses cleavage by the Development Reagent. Cleavage disrupts FRET between the donor (i.e., coumarin) and acceptor (i.e., fluorescein) fluorophores on the FRET-peptide, whereas uncleaved, phosphorylated FRET-peptides maintain FRET. A ratiometric method, which calculates the ratio (the Emission Ratio) of donor emission to acceptor emission after excitation of the donor fluorophore at 400 nm, is used to quantitate reaction progress, as shown in the equation below: […]
A significant benefit of this ratiometric method for quantitating reaction progress is the elimination of well-to-well variations in FRET-peptide concentration and signal intensities. […] Both cleaved and uncleaved FRET-peptides contribute to the fluorescence signals and therefore to the Emission Ratio. The extent of phosphorylation of the FRET-peptide can be calculated from the Emission Ratio. The Emission Ratio will remain low 1f the FRET-peptide is phosphorylated (i.e., no kinase inhibition) and will be high if the FRET-peptide is non-phosphorylated (i.e., kinase inhibition).
Both cleaved and uncleaved FRET-peptides contribute to the fluorescence signals and therefore to the Emission Ratio. The extent of phosphorylation of the FRET-peptide can be calculated from the Emission Ratio. The Emission Ratio will remain low if the FRET-peptide is phosphorylated (i.e., no kinase inhibition) and will be high if the FRET-peptide is non-phosphorylated (i.e., kinase inhibition).

Ret kinase = Ret kinase (Homo sapiens, UniProt P07949); experiment: Z'-LYTE kinase inhibition, Ret
EGFR = EGFR (Homo sapiens, UniProt P00533); experiment: Z'-LYTE kinase inhibition, EGFR; details: EGFR relative to Yes
BTK = BTK (Homo sapiens, UniProt Q06187); experiment: Z'-LYTE kinase inhibition, BTK
Abl = Abl (Homo sapiens, UniProt P00519); experiment: Z'-LYTE kinase inhibition, Abl
pdgfr-b = pdgfr-b (Homo sapiens, UniProt P09619); experiment: Z'-LYTE kinase inhibition, pdgfr-b

Ret kinase, sequence (P07949 29-1114): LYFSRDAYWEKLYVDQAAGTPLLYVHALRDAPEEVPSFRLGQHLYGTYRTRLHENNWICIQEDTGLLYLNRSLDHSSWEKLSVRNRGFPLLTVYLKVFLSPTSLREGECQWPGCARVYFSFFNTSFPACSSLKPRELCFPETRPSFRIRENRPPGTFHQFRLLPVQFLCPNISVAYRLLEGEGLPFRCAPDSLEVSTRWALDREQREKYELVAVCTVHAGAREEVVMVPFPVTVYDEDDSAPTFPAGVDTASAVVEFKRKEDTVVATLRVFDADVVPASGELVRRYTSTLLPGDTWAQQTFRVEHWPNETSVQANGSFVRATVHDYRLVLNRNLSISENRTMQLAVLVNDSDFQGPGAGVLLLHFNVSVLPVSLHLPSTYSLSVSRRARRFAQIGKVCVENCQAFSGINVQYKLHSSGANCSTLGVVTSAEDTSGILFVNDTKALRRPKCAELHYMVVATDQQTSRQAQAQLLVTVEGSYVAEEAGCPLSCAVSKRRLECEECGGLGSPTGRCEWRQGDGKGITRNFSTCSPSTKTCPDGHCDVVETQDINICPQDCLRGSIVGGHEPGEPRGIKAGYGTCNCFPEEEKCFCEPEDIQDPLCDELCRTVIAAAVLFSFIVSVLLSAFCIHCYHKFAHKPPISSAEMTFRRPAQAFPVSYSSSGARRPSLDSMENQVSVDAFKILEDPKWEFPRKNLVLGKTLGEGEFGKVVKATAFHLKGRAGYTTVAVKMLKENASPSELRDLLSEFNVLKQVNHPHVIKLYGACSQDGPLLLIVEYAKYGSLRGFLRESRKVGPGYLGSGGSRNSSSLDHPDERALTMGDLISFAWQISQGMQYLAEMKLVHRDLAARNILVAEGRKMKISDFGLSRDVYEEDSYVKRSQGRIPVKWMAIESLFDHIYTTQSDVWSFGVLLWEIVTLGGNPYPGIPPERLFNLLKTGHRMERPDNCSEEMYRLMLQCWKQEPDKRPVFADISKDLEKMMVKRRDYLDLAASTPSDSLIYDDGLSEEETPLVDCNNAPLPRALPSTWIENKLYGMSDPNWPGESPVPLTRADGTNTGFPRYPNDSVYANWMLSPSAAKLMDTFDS
Yes, sequence (P07947 whole entry): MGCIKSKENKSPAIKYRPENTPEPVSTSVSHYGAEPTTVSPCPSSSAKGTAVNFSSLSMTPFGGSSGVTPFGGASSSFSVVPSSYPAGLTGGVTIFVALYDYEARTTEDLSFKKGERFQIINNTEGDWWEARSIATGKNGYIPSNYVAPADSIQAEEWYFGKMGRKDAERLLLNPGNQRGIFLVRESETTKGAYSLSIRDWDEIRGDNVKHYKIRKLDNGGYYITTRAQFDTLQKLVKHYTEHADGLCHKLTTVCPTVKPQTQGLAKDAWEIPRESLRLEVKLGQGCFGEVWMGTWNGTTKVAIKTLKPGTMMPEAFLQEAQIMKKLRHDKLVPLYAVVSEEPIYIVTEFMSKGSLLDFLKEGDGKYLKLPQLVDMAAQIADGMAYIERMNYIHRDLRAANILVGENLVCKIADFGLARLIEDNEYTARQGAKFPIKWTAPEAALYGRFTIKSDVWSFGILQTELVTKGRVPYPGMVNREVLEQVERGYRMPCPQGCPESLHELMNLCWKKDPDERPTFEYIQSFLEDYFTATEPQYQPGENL
Abl, sequence (P00519 whole entry): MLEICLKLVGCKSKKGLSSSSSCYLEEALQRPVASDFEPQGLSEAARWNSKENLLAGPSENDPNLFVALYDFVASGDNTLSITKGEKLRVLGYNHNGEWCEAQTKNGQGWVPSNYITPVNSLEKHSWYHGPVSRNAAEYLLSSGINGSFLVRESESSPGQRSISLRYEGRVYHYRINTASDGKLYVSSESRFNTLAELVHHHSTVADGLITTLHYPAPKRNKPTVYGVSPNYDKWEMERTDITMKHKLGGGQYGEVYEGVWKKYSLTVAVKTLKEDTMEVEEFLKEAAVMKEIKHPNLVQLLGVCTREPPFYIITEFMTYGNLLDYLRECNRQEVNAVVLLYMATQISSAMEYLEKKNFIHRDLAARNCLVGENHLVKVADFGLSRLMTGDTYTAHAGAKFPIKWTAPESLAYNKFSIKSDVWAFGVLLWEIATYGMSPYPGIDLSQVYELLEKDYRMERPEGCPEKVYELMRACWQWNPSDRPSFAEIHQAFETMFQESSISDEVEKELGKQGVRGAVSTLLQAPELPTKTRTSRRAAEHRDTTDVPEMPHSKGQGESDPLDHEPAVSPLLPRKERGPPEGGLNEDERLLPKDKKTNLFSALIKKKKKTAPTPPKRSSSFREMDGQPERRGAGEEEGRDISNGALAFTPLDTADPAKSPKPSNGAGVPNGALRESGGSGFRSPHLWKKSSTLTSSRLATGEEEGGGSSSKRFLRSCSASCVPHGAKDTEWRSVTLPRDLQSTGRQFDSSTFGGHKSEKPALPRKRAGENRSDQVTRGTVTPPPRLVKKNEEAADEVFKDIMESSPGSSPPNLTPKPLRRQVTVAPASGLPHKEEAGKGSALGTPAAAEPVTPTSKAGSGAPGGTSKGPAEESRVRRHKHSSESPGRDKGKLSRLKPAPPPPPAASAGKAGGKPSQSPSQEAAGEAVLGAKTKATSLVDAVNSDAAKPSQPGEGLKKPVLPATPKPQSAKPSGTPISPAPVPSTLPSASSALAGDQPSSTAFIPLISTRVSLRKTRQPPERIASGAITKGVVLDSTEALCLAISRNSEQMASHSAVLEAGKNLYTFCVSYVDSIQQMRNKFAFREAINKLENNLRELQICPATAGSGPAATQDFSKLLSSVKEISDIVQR
EGFR, sequence (P00533 25-1210): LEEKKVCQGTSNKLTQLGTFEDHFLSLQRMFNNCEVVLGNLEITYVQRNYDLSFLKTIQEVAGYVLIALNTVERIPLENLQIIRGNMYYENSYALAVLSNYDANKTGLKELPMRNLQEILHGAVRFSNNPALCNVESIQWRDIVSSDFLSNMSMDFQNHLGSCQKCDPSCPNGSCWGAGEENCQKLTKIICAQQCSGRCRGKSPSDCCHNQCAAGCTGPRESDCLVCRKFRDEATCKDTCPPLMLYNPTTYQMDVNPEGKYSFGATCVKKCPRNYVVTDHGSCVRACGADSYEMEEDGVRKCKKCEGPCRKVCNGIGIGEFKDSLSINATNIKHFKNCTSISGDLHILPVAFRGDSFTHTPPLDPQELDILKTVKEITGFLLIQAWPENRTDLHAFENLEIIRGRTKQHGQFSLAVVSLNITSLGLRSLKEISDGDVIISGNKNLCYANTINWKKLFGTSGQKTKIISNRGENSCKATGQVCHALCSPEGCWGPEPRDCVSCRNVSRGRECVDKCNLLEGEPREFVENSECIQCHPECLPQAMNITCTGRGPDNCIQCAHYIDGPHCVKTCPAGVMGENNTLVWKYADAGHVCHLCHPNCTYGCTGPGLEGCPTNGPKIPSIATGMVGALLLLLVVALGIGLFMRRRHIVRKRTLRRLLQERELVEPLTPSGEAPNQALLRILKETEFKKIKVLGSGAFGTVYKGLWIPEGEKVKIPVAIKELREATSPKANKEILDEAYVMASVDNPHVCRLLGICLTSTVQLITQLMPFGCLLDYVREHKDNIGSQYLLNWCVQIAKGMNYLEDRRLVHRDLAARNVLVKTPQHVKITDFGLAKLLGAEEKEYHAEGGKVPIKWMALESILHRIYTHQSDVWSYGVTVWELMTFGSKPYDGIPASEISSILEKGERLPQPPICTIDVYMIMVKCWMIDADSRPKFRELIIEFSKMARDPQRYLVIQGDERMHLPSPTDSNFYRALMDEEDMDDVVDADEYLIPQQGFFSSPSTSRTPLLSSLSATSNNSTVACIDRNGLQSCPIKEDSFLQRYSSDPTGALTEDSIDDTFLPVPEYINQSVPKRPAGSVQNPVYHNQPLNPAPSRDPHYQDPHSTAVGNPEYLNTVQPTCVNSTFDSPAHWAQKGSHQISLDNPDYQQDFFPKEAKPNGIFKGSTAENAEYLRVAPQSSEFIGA
CSK, sequence (P41240 whole entry): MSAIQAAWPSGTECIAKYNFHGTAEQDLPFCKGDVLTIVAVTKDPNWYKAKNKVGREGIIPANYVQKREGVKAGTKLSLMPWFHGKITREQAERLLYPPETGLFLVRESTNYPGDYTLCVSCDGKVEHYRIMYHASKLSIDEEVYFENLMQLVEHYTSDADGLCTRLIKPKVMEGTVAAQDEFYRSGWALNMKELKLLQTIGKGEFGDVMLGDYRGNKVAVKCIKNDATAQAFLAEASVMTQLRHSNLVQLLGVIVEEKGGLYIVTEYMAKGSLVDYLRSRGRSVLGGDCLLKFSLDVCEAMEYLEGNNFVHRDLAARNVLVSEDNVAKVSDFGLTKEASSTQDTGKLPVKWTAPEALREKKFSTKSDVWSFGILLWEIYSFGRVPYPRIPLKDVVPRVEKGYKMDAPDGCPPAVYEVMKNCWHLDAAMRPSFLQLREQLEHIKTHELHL
Hck, sequence (P08631 whole entry): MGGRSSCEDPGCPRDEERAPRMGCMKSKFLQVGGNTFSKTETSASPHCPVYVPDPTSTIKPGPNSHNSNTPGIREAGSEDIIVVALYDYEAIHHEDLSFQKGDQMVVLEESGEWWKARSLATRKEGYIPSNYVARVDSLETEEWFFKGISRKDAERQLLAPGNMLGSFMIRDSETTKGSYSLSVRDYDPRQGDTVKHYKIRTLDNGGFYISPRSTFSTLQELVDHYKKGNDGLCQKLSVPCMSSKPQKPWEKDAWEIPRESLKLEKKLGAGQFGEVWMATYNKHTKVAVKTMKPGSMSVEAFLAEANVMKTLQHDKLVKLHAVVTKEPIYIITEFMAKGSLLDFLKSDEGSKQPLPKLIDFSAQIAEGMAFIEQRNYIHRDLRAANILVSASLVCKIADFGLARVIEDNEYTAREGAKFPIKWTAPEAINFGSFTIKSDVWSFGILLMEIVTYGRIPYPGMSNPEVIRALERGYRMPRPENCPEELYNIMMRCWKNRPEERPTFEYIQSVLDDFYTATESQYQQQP

Question: `COc1ccc(Cl)c(-c2c(Cl)n(C(C)(C)C)c3ncnc(N)c23)c1` (single isomer, unassigned) [2e-(S), 7-(tert-butyl)-6-chloro-5-(2-chloro-5-methoxyphenyl)-7H-pyrrolo[2,3-d]pyrimidin-4-amine] was tested. Which “S/R (5000 nM): % inhibition 2e-(S) / % inhibition 2e-(R)” value (Alk) did it give?
Answer: 0.38

Question: What about the “S/R (5000 nM): % inhibition 2e-(S) / % inhibition 2e-(R)” value (Fgr) of the same compound?
Answer: 1.05

Question: And the “S/R (5000 nM): % inhibition 2e-(S) / % inhibition 2e-(R)” value (Kit)?
Answer: 1.38

Question: What about the “S/R (5000 nM): % inhibition 2e-(S) / % inhibition 2e-(R)” value (Lyn) of the same compound?
Answer: 1.31

Question: And the “IC50 of compound Kinase/IC50 of compound Yes” value (from here on “IC50”) (Src kinase)?
Answer: 1.64

Question: And the “S/R (5000 nM): % inhibition 2e-(S) / % inhibition 2e-(R)” value (Fyn)?
Answer: 1.27

Question: And the “S/R (5000 nM): % inhibition 2e-(S) / % inhibition 2e-(R)” value (pdgfr-a)?
Answer: 1.63

Question: And the “S/R (5000 nM): % inhibition 2e-(S) / % inhibition 2e-(R)” value (Hck)?
Answer: 1.25

Question: And the “S/R (5000 nM): % inhibition 2e-(S) / % inhibition 2e-(R)” value (Blk)?
Answer: 1.46

Question: And the “S/R (5000 nM): % inhibition 2e-(S) / % inhibition 2e-(R)” value (CSK)?
Answer: 1.28

Question: And the “IC50” value (Yes; Yes relative to Yes)?
Answer: 1

Question: What about the “S/R (5000 nM): % inhibition 2e-(S) / % inhibition 2e-(R)” value (Yes; Yes, 5000 nM) of the same compound?
Answer: 0.97

Question: What about the “S/R (5000 nM): % inhibition 2e-(S) / % inhibition 2e-(R)” value (Lck) of the same compound?
Answer: 1.05

Question: And the “S(40%): number of kinases inhibited greater than 40% divided by number of kinases tested (including Src)” value ([1]; 1000 nM)?
Answer: 0.16

Question: And the “S(40%): number of kinases inhibited greater than 40% divided by number of kinases tested (including Src)” value ([1]; 5000 nM)?
Answer: 0.61

Question: And the “Inhibited % (n/18) of tyrosine kinases” value ([1]; share of the 18 tyrosine kinases inhibited, concentration not printed in Table 3)?
Answer: (S): Inhibited 16% (3/18)

Question: And the “IC50” value (Ret kinase; Ret relative to Yes)?
Answer: 10.53

Question: What about the “augmentation/increase of 5's inherent selectivity” value (Ret kinase; Ret versus Abl and Src, listed as 2e-(5)) of the same compound?
Answer: ~8 fold

Question: And the “S/R (5000 nM): % inhibition 2e-(S) / % inhibition 2e-(R)” value (Ret kinase; Ret, 5000 nM)?
Answer: 0.44

Question: What about the “IC50” value (EGFR) of the same compound?
Answer: >10.0

Question: What about the “S/R (5000 nM): % inhibition 2e-(S) / % inhibition 2e-(R)” value (BTK) of the same compound?
Answer: 1.86

Question: And the “IC50” value (Abl; Abl relative to Yes)?
Answer: 1.96

Question: What about the “S/R (5000 nM): % inhibition 2e-(S) / % inhibition 2e-(R)” value (Abl; Abl, 5000 nM) of the same compound?
Answer: 2.57

Question: And the “S/R (5000 nM): % inhibition 2e-(S) / % inhibition 2e-(R)” value (pdgfr-b)?
Answer: 1.23
